Entries after “also recorded” stand apart in the source; their conditions may differ.
Key:
[1] = test system: nahR/Psal::xylS2 cascade circuit with Pm::trp′::′lacZ in SL7207 4S2; type: cell-based, Salmonella typhimurium
[2] = test system: SL7207 4S2 pWSK-/pCAS-trp′::′lacZ infecting HeLa cells; type: cell-based
XylS2 = XylS2 mutant regulator; cited from earlier work
[3] = test system: nahR/Psal with xylS2/Pm downstream; details: cited from earlier work
SL7207 4S2 = assay: growth inhibition of the bacterial cultures at high inducer concentration; details: high concentrations (5 mM)
MarR = MarR (Escherichia coli, UniProt P27245); details: cited from earlier work
[4] = in vivo; cited from earlier work

Chain of MarR (P27245 whole entry): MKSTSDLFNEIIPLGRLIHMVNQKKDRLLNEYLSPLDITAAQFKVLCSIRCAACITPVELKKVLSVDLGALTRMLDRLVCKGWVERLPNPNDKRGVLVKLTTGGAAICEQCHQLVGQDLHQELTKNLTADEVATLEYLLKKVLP

SMILES	induction of the system, salicylate compared with acetylsalicylic acid [1]	β-galactosidase expression in bacteria infecting HeLa cells [2]	induction of expression (XylS2)	induction reached with regulation cascade system [3]	growth inhibition (SL7207 4S2)	Kd (MarR)	half-life [4]
CC(=O)Oc1ccccc1C(=O)O [acetylsalicylic acid]	induced the system similarly	induce similar levels of β-galactosidase; also recorded: activate the signal cascade to similar levels	10 fold	1,000 fold	growth inhibition was evident		
O=C(O)c1ccccc1O [salicylate]						500 µM	2 to 4 h

Reference: patent US20070264702A1 (priority 2003, published 2007)
